The values that follow come from BindingDB's records for doi:10.1021/jm010988n (University of Regensburg, 2002).

The assay deals with Platelet-derived growth factor receptor (Mus musculus). Description: The cells were stimulated with PDGF (100 ng/mL) for 10 min at room temperature. Then the cell lysates were analyzed by SDS-PAGE and immunoblotting with anti-phosphotyrosine antibodies. Quantification of IC50 values was based on the intensity of the signal for autophosphorylated PDGF receptor. Titration was done using four to ei.

As usually defined, the IC50 is the concentration that inhibits the measured activity by half. High values mean a need for much substance, low ones inhibition by little substance. `O=C(c1cc2ccccc2[nH]1)c1cc2cc(OC(=O)C3CCC3)ccc2[nH]1` [2-(1H-indol-2-ylcarbonyl)-1H-indol-5-yl cyclobutanecarboxylate] registered an IC50 of 5.7 µM.
For `O=C(c1cc2ccccc2[nH]1)c1cc2cc(OCCCCI)ccc2[nH]1` [5-(4-Iodobutoxy-1H-2-indolyl)(1H-2-indolyl)methanone], half-maximal inhibition (pH 7.4) (IC50) was put at 12.5 µM.
Same read-out and setting: the same measure for `O=C(c1cc2ccccc2[nH]1)c1cc2cc(OCc3ccccc3)ccc2[nH]1` [5-(benzyloxy)-2-(1H-indol-2-ylcarbonyl)-1H-indole]: 20 µM.
On the same count and under the same terms, for `COc1ccc2[nH]c(C(=O)c3cc4cc(OC)ccc4[nH]3)cc2c1` [Bis(5-methoxy-1H-2-indolyl)methanone] the value was 20 µM.
